biological target: D(2) dopamine receptor (Rattus norvegicus, UniProt P61169); experiment: Inhibition of [3H](-)-sulpiride binding to rat striatum dopamine receptor D2; type: tissue-based
Sequence (P61169 whole entry): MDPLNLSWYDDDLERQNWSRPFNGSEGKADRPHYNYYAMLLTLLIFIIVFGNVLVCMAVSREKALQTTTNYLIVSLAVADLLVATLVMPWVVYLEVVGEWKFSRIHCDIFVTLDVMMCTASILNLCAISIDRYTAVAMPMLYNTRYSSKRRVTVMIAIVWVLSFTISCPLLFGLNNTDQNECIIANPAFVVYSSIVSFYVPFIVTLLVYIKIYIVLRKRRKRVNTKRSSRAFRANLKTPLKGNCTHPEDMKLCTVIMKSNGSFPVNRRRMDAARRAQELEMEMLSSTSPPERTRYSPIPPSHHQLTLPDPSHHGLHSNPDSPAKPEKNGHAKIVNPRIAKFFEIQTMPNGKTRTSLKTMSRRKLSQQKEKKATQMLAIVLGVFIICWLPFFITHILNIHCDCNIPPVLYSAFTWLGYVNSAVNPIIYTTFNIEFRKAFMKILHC

Structure (SMILES) | IC50
CCCCN1CC[C@H]2c3ccccc3CC[C@H]2C1 | 145 nM
c1ccc(CCN2CC[C@H]3c4ccccc4CC[C@H]3C2)cc1 | 162 nM
CC(C)(C)c1ccc(CN2CC[C@H]3c4ccccc4CC[C@H]3C2)cc1 | 288 nM
CCCCN1CCC2=C(Cc3ccccc32)C1 | 60.3 nM
CCCCN1CCC2=C(CCCc3ccccc32)C1 | 61.7 nM
CCCCN1CC[C@@H]2c3ccccc3CC[C@H]2C1 | 389 nM
CCCCN1CCC2=C(CCc3ccccc32)C1 | 63.1 nM
c1ccc2c(c1)CC[C@H]1CN(C34C[C@H]5C[C@@H](C3)C[C@@H](C4)C5)CC[C@@H]21 | > 10000 nM
COc1ccc(CN2CC[C@H]3c4ccccc4CC[C@H]3C2)cc1 | 35.5 nM
O=[N+]([O-])c1ccc(CCN2CC[C@H]3c4ccccc4CC[C@H]3C2)cc1 | 589 nM
CCCCN1CCC2c3ccccc3CCCC2C1 (configuration not stated) | 166 nM
c1ccc2c(c1)CC[C@H]1CN(C3CCCCC3)CC[C@@H]21 | 2690 nM

— ChEMBL document CHEMBL1126294, “Benz[f]isoquinoline analogues as high-affinity sigma ligands” (J Med Chem, 1992)
